# Marks after values point to notes of the source that are not given here.
# Tests used:
# [1] = design: method as in Czank et al., 2013; details: ref Czank et al., 2013, cited from earlier work
# [2] = Serum pharmacokinetics after 500 mg oral bolus of 13C5-C3G (HPLC-ESI-MS/MS, non-compartmental analysis); assay type: in vivo, humans; details: for Cmax: healthy men, mean ± SEM of participants in whom detected; for AUC(0-t) / AUC0-48: trapezoidal rule; for AUC(0-t): read-out: AUC0-48
# Description: (§1) A detailed description of the clinical design was previously published ([Czank et al., 2013]). Briefly, a single 500 mg oral bolus dose of isotopically labelled C3G (^13C5-C3G) was fed to eight healthy male participants (body mass index, 18.5–30.5 kg·m^–2; aged 18–45 years) after an overnight fast (>8 h). Participants provided blood (baseline, 0.5, 1, 2, 4, 6, 24, 48 h), urine (individual voids between 0 and 6 h, total voids between 6–24 and 24–48 h), breath (baseline, 0.5, 1, 2, 4, 6, 24, 48 h) and faecal samples (all voids between 0–6, 6–24 and 24–48 h). The study was conducted at the Clinical Research and Trials Unit at the University of East Anglia according to the principles expressed in the Declaration of Helsinki and was approved by the Cambridgeshire 3 Research Ethics Committee (REC ref: 10/H0306/42) and registered at clinicaltrials.gov as NCT01106729.
# (§2) Serum, urine and faecal samples were extracted by SPE and analysed by HPLC-ESI-MS/MS as recently described ([Czank et al., 2013]). The extraction efficiency was established as 87 ± 11% (coefficient of variation, CV; 6.8 ± 0.7%) for serum, 88 ± 18% (CV, 7.9 ± 0.8%) for urine and 81 ± 21% (CV, 14.1 ± 1.2%) for faeces (n = 3 replicates for each analyte). Sample extracts (5 μL) were injected onto a Kinetex PFP column (Phenomonex) and separated using an Agilent 1200 series HPLC with a QTrap 4000 linear ion trap mass spectrometer (ABSciex, Warrington, UK). […] Metabolite identification was performed by multiple reaction monitoring (MRM) optimized for the detection of pure standards with m/z of the parent and daughter fragments adjusted to +2,+3,+5 amu to allow identification of the ^13C-labelled metabolites derived from the B-ring, A-ring or the parent structure respectively. Metabolites were confirmed on the basis of retention time (using authentic and synthesized standards where possible) and three or more ion transitions. The HPLC-ESI-MS/MS method was validated for linearity and precision across all metabolites. Six point standard curves ranging from 1.25 to 20 μM were constructed from analytical standards and injected six times. The precision was established as 1.4–11.0% and linearity of the standard curves was established as r^2 = 0.991–1.000 (CV, 0.2%) across the identified metabolites.
# (§3) Pharmacokinetic modelling of metabolites in the serum was performed with the PKSolver ‘add-on’ for Excel 2010 (Microsoft, […], USA) ([Zhang et al., 2010]) using non-compartmental analysis with the AUC calculated using the trapezoidal rule. Pharmacokinetic parameters were established for each individual analyte and presented as mean ± SEM. Urine samples collected during the first 6 h post-bolus were grouped together to the nearest hour time point (i.e. samples were not pooled but individual concentrations were averaged post-quantification) for graphical representation and to calculate total cumulative recovery. The concentration of metabolites was converted to amount recovered from urine by accounting for the molecular weight of the individual ^13C-labelled metabolites and the volume of the individual participants void and averaged across participants. Recovery of metabolites in the faeces was established from the molecular weight of the ^13C-labelled metabolite and the weight of the individual participants void adjusting for faecal water content as previously described ([Czank et al., 2013]). Urine and faecal recovery amounts are presented as mean ± SEM (n = 8), unless otherwise stated.
# [3] = Faecal recovery after 500 mg oral bolus of 13C5-C3G; assay type: in vivo, humans; details: faeces, 500 mg oral 13C5-C3G; for Recovery 6–24 h / Recovery 24–48 h: mean ± SEM
# Description: The study was conducted at the Clinical Research and Trials Unit at the University of East Anglia according to the principles expressed in the Declaration of Helsinki and was approved by the Cambridgeshire 3 Research Ethics Committee (REC ref: 10/H0306/42) and registered at clinicaltrials.gov as NCT01106729.
# Sample extracts (5 μL) were injected onto a Kinetex PFP column (Phenomonex) and separated using an Agilent 1200 series HPLC with a QTrap 4000 linear ion trap mass spectrometer (ABSciex, Warrington, UK). […] Metabolite identification was performed by multiple reaction monitoring (MRM) optimized for the detection of pure standards with m/z of the parent and daughter fragments adjusted to +2,+3,+5 amu to allow identification of the ^13C-labelled metabolites derived from the B-ring, A-ring or the parent structure respectively. […] The HPLC-ESI-MS/MS method was validated for linearity and precision across all metabolites.
# Pharmacokinetic parameters were established for each individual analyte and presented as mean ± SEM. Urine samples collected during the first 6 h post-bolus were grouped together to the nearest hour time point (i.e. samples were not pooled but individual concentrations were averaged post-quantification) for graphical representation and to calculate total cumulative recovery. The concentration of metabolites was converted to amount recovered from urine by accounting for the molecular weight of the individual ^13C-labelled metabolites and the volume of the individual participants void and averaged across participants. […] Urine and faecal recovery amounts are presented as mean ± SEM (n = 8), unless otherwise stated.
# [4] = Urinary elimination/recovery after 500 mg oral bolus of 13C5-C3G; assay type: in vivo, humans; details: urine, single 500 mg oral 13C5-C3G; for Tmax: male, human, po, 500 mg, urine collection interval, read-out: Time at maximum concentration; for Total recovery: 0-48 h; for Total recovery / Maximum concentration: mean ± SEM
# Description: as §1, §2, §3
# [5] = system: vascular cell adhesion molecule-1 (VCAM-1); design: method as in Wang et al., 2010; details: TNF-α-induced mouse aortic endothelial cells; ref Wang et al., 2010; cited from earlier work
# [6] = system: LPS-induced RAW 264.7 cells; design: method as in Min et al., 2010; details: ref Min et al., 2010; cited from earlier work
# plasma VCAM-1 = system: plasma VCAM-1; design: method as in Wang et al., 2010; details: mice fed PCA; ref Wang et al., 2010; cited from earlier work
# plasma IL-6 = system: plasma IL-6; design: method as in Kim et al., 2010; details: vanillic acid fed mice; ref Kim et al., 2010; cited from earlier work
# [7] = male, human, serum, po, 500 mg, serum elimination half-life, single 500 mg oral 13C5-C3G, mean ± SEM
# [8] = male, human, serum, po, 500 mg, serum, single 500 mg oral 13C5-C3G, mean ± SEM, read-out: tmax
# [9] = male, human, serum, po, 500 mg, single 500 mg oral 13C5-C3G
# [10] = male, human, serum, single 500 mg oral 13C5-C3G, mean ± SEM
# [11] = serum, single 500 mg oral 13C5-C3G
# [12] = serum, single 500 mg oral 13C5-C3G, mean ± SEM
SMILES,"half-life [2, 7] [h]","Tmax [2, 8] [h]","Cmax [2, 9] [nM]","AUC(0-t) [2, 10] [µM·h]",Recovery 6–24 h [3],Recovery 24–48 h [3],Tmax [4] [h],Total recovery [4] [µg],Maximum concentration [4] [nM],"Cmax [2, 11] [nM]","Tmax [2, 12] [h]","AUC0-48 [2, 12] [µM·h]",further results
"OCC1OC(Oc2cc3c(O)cc(O)cc3[o+]c2-c2ccc(O)c(O)c2)C(O)C(O)C1O (stereo not shown) [Cyanidin-3-glucoside, 6,8,10,3′,5′-^13C5-cyanidin-3-glucoside]",0.4,1.8 ± 0.2,141 ± 70,0.279 ± 0.17,70.0 ^b μg,19.6 ^b μg,1 to 2,120.0 ± 54.1,334 ± 145,–,–,–,"relative bioavailability ([1]; based on recovery of the 13C-label in urine and breath): 12.4 ± 1.4%; recovered 13C-label in faeces [1]: 32 ± 6%; recovery of the initial dose of 13C within the urine sample [1]: 12%; share of the total metabolites found in the circulation ([2]; serum, 500 mg oral 13C5-C3G): 2%"
O=C(O)c1ccc(OC2OC(C(=O)O)C(O)C(O)C2O)c(O)c1 (stereo not shown) [PCA-4-glucuronide],–,–,–,–,16.1 ± 17.5 µg,20.4 ± 16.2 ^i μg,–,100.3 ± 30.2,233 ± 65,68 ± 61,3.8 ± 0.8,0.618 ± 0.489,"t1/2 ([2]; serum elimination half-life, single 500 mg oral 13C5-C3G, mean ± SEM): 19.4 ± 3.1 h"
O=Cc1c(O)cc(O)cc1O [Phloroglucinaldehyde],–,2.8 ± 1.1,582 ± 536,7.88 ± 7.77,2.1 ± 1.3 ^e μg,111.3 ± 78.7 ^f μg,6 to 24,66.7 ± 21.3,170 ± 42,–,–,–,–
"O=C(O)c1ccc(O)c(O)c1 [Protocatechuic acid (PCA), Protocatechuic acid]",9.9 ± 3.4,3.3 ± 0.7,147,1.38 ± 0.76,360.9 ± 278.1 ^c μg,221.8 ± 134.9 ^d μg,1 to 2,71.6 ± 20.9,337 ± 117,146 ± 74,–,–,"VCAM-1 protein and mRNA [5]: reduce; production of TNF-α, IL-1β, NO, PGE2 and gene expression of NOS and COX-2 [6]: suppress; Recovery 6–24 h ([3]; listed as PCA): 360.9 µg; plasma VCAM-1 levels (plasma VCAM-1): reduced"
COc1cc(C(=O)O)ccc1OC1OC(C(=O)O)C(O)C(O)C1O (stereo not shown) [VA-4-glucuronide],–,–,–,–,3.3 ^b μg,9.5 ± 7.9 ^g μg,–,618.4 ± 109.7,762 ± 124,24 ± 4,4.8 ± 0.4,0.074 ± 0.011,Recovery 0–6 h ([3]; 0–6 h (only 2 participants provided voids)): 3.6 ^b μg

# Second part, led by results:
"half-life [2, 7] [h]","Tmax [2, 8] [h]","Cmax [2, 9] [nM]","AUC(0-t) [2, 10] [µM·h]",Recovery 6–24 h [3],Recovery 24–48 h [3],Tmax [4] [h],Total recovery [4] [µg],Maximum concentration [4] [nM],"Cmax [2, 11] [nM]","Tmax [2, 12] [h]","AUC0-48 [2, 12] [µM·h]",SMILES,further results
–,–,–,–,11.0 ^b μg,8.5 ^b μg,–,79.5 ± 54.2,212 ± 130,195,2.0,0.189,COc1ccc(C(=O)O)cc1O [IsoVA],–
21.6 ± 5.9,8.4 ± 5.7,12 ± 5,0.171 ± 0.07,166.6 ± 100.6 ^g μg,92.4 ± 49.4 ^f μg,3 to 4,20.7 ± 8.0,108 ± 39,–,–,–,"COC(=O)c1ccc(O)c(O)c1 [Methyl-3,4-dihydroxybenzoate]",–
18 ± 15.6,2.7 ± 1,11 ± 3,0.06 ± 0.038,22.9 ± 22.0 ^g μg,49.0 ^b μg,1 to 2,197.7 ± 41.2,301 ± 72,–,–,–,O=C(O)c1ccc(O)c(OC2OC(C(=O)O)C(O)C(O)C2O)c1 (stereo not shown) [PCA-3-glucuronide],–
6.4,12.5 ± 11.5,1840 ± 838,–,54.7 ± 1.6 ^h μg,49.3 ± 21.4 ^g μg,1 to 2,960.4 ± 350.0,3412 ± 312,–,–,–,"COc1cc(C(=O)O)ccc1O [Vanillic acid (VA), Vanillic acid]",plasma IL-6 (plasma IL-6): reductions

# From paper PMC4080980, “The pharmacokinetics of anthocyanins and their metabolites in humans” (British Journal of Pharmacology, 2014)
